Measured values published in patent publication US20170266204A1 (ARNO THERAPEUTICS, INC., priority 2016, published 2017).

Legend:
[1] = molecular target: T1, progesterone receptor (PR) (Homo sapiens, UniProt P06401); experiment: PRE-luciferase reporter assay in 293T and WMPY cells transfected with PR; assay type: cell-based; details: 100 nM
T1 construct: expressed in transfected cells; host or cells: 293T (human embryonic kidney cells) and WMPY (prostatic stromal cell line)
T1 sequence (P06401 1-933): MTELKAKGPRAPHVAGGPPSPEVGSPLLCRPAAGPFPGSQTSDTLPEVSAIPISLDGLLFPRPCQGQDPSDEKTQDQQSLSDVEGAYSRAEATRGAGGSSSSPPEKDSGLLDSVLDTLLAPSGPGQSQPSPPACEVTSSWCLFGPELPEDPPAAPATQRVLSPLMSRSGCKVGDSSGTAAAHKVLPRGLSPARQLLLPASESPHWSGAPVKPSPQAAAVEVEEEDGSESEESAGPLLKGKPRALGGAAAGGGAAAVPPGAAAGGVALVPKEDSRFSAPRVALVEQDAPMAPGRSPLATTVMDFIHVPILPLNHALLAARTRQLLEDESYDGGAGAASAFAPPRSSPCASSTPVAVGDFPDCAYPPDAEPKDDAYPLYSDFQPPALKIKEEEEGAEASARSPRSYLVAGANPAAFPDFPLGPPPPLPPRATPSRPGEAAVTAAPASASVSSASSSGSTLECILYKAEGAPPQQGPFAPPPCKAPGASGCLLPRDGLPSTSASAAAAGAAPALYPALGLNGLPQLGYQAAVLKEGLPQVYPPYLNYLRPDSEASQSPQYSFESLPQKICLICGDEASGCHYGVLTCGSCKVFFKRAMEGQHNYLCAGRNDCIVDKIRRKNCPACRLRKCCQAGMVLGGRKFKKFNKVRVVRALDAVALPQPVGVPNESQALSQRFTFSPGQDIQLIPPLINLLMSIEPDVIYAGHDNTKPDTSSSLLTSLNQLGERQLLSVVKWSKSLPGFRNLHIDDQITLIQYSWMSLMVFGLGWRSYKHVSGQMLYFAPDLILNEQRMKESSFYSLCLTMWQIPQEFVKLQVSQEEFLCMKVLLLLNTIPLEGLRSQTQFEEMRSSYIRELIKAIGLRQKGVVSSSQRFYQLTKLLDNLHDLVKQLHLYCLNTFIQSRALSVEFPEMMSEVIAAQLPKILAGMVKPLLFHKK
Method: 293T and WMPY cells were transfected with progesterone receptor (PR) and PRE-luciferase reporter. […] Experiments were repeated in triplicate. […] Because of the metabolic stability of M1 compared to ONA, a blood circulation of 100 nM M1 can be achieved after dosing M1 at 1 mg.

[2] = in vitro; details: for P450 enzyme catalyzing the metabolism: microsomes; for Vmax for metabolism: Table 1 Vmax 1
Method: Mohutsky M, Wrighton S, Ring B. In vitro metabolism: subcellular fractions. In: Pearson P, Wienkers L, editors. Handbook of drug metabolism. New York: Informa Healthcare; 2009. pp. 445-464. […] The incubation was conducted at various time points 0-60 min at 37° C. At the end of incubation, the reactions were quenched, processed, and analyzed by LC-MS/MS.

[3] = Concentration in blood circulation after dosing
[4] = Metabolite profile by LC-MS in pooled urine of chimeric mice with humanized liver after repeated oral onapristone; assay type: in vivo; details: onapristone 30 mg/kg/day, D11
Method: Metabolites were identified using liquid chromatography-mass spectrometry (LC-MS) and mass spectroscopy on pooled plasma, urine, and liver samples. Twenty-seven metabolites were identified in urine samples across dose and sampling time (e.g., 0-24 hours of dosing for each time point).
Mice with humanized livers were generated as described by Meuleman et al., Hepatology 2005, 41 (4):847-856. This humanized liver model is routinely used to assess the metabolism and toxicities of drugs. Kamimura H, Nakada N, Suzuki K, et al. Assessment of chimeric mice with humanized liver as a tool for predicting circulating human metabolites. Drug Metab Pharmacokinet 2010;25(3):223-235. Two weeks following birth, mice were transplanted with primary hepatocytes isolated from the liver of a donor (purchased from BD Genetest). All animals were housed and kept under standard animal protocols. Animals also were observed during the experiment for signs of illness, abnormal behavior and appearance, and any sign of toxicity, or mortality. Animals were treated orally by gavage with 0, 10, and 30 mg/kg of drug once a day up to 31 days. At the end of treatments, blood samples, urine, and liver were collected and processed for LC-MS/MS metabolite identification and profiling. […]

[5] = assay type: in vitro ADME, human
From the text: In: Pearson P, Wienkers L, editors. Handbook of drug metabolism. New York: Informa Healthcare; 2009. pp. 445-464.

SMILES | inhibition of PR transcriptional activity [1] | P450 enzyme catalyzing the metabolism ([2]; both, human) | Vmax 1 ([2]; female human liver microsomes) [pmol/min/mg] | Vmax 2 ([2]; female human liver microsomes) [pmol/min/mg] | Vmax for metabolism ([2]; females) | Km ([2]; human, Km 1) [µM] | Km ([2]; human, Km 2) [µM] | Vmax 1 ([2]; male human liver microsomes) [pmol/min/mg] | Vmax 2 ([2]; male human liver microsomes) [pmol/min/mg] | Km ([2]; male, human, Km 1) [µM] | Km ([2]; male, human, Km 2) [µM] | Vmax for metabolism ([2]; males) | concentration that can be achieved in blood circulation ([3]; after dosing M1 at 1 mg, inferred from metabolic stability of M1) [nM] | concentration achieved in blood circulation ([3]; after dosing onapristone at 10 mg QD) [nM] | metabolite detected by LC-MS in urine [4] | P450 enzyme catalyzing the metabolism [2] | number of metabolites formed in vitro [5]
CNc1ccc([C@H]2C[C@]3(C)[C@@H](CC[C@]3(O)CCCO)[C@@H]3CCC4=CC(=O)CCC4=C32)cc1 [Metabolite M1, (8S, 11R,13R,14S,17S)-17-hydroxy-17-(3-hydroxypropyl)-13-methyl-11-(4-(methylamino)phenyl)-6,7,8,11,12,13,14,15,16,17-decahydro-1H-cyclopenta[a]phenanthren-3(2H)-one] | fully inhibit | CYP3A and CYP2C | 106 | 738 | 106 pmol/min/mg microsomal protein | 0.75 | 175 | 72 | 748 | 0.96 | 129 | 72 pmol/min/mg microsomal protein | 100 | 10 |  |  | 
CN(C)c1ccc([C@H]2C[C@]3(C)[C@@H](CC[C@]3(O)CCCO)[C@@H]3CCC4=CC(=O)CCC4=C32)cc1 [onapristone, Onapristone, reference compound] | fully inhibit |  | 1517 | 8715 | 1517 pmol/min/mg microsomal protein |  |  | 1292 | 7213 |  |  | 1292 pmol/min/mg microsomal protein |  |  | Ls | CYP3A | nine
